The source of these data is patent publication US20040034078A1 (Agouron Pharmaceuticals, Inc., priority 2002, published 2004).

Each structure is given as a SMILES string.

Data set [1] deals with purified PARP protein (Homo sapiens, UniProt P09874). Briefly: PARP Enzyme Inhibition Assay. Format: biochemical. To be noted: [32P]NAD+ incorporation, 500 μM NAD+, 25° C.; competitive inhibition fit; read-out: Inhibition Constant Ki. The method, then:
The PARP enzyme-inhibiting activities of test compounds were assayed as described by Simonin et al. (J. Biol. Chem. (1993), 268:8529-8535) and Marsischky et al. (J. Biol. Chem. (1995), 270:3247-3254) with minor modifications as follows. Samples (50 μL) containing 20 nM purified PARP protein, 10 μg/mL DNAse I-activated calf thymus DNA (sigma), 500 μM NAD^+, 0.5 μCi [^32P]NAD^+, 2% DMSO, and various concentrations of test compounds were incubated in sample buffer (50 mM Tris pH 8.0, 10 mM MgCl2, 1 mM tris(carboxyethyl)phosphine HCl) at 25° C. for 5 minutes. Under these conditions, the reaction rate was linear for times up to 10 minutes. The reaction was stopped by the addition of an equal volume of ice-cold 40% trichloroacetic acid to the samples, which were then incubated on ice for 15 minutes. The samples were then transferred to a Bio-Dot microfiltration apparatus (BioRad), filtered through Whatman GF/C glass-fiber filter paper, washed 3 times with 150 μL of wash buffer (5% trichloroacetic acid, 1% inorganic pyrophosphate), and dried. [^32P]ADP-Ribose incorporation into the acid-insoluble material was quantitated using a PhosphorImager (Molecular Dynamics) and ImageQuant software. Inhibition constants (Ki) were calculated by non-linear regression analyses using the velocity equation for competitive inhibition (Segel, Enzyme Kinetics: Behavior and Analysis of Rapid Equilibrium and Steady-State Enzyme Systems, John Wiley & Sons, Inc., New York (1975), 100-125). In the case of tight-binding inhibitors, 5 nM enzyme was used and the reaction was incubated at 25° C. for 25 minutes. Ki values for tight-binding inhibitors were calculated using the equation described by Sculley et al. (Biochim. Biophys. Acta (11986), 874:44-53).

The test system of data set [2] is A549 cells. Briefly: Cytotoxicity Potentiation Assay. In kind it is cell-based. The following applies: ratio of IC50 of topotecan alone to IC50 of topotecan in combination with test compound. The method, then: A549 cells (ATCC, Rockville, Md.) were seeded into 96-well cell culture plates (Falcon brand, Fisher Scientific, Pittsburgh, Pa.) 16 to 24 hours before experimental manipulation. Cells were then treated with a test compound (or a combination of test compounds where indicated) for either 3 days or 5 days. At the end of treatments, relative cell number was determined either by MTT assay or SRB assay. For the MTT assay, 0.2 μg/μl of MTT (3-(4,5-dimethylthiazol-2-yl)-2,5-diphenyltetrazolium bromide, Sigma Chemical Co., St. Louis, Mo.) was added to each well of a plate, and the plate was incubated in a cell-culture incubator for 4 hours. Metabolized MTT in each well was solubilized in 150 μl of DMSO (Sigma Chemical Co.) with shaking and quantified with a Wallac 1420 Victor plate reader (EG & G Wallac, Gaithersburg, Md.) at 540 nm. For the SRB assay, cells were fixed with 10% trichloroacetic acid (Sigma Chemical Co) for an hour at 4° C. After extensively washing, fixed cells were stained for 30 minutes with 0.4% sulforhodamine B (SRB, Sigma Chemical Co.) in 1% acetic acid (Sigma Chemical Co). Unbound SRB was washed away with 1% acetic acid. Then the cultures were air-dried, and bound dye was solubilized with 10 mM unbuffered Tris base (Sigma Chemical Co) with shaking. The bound dye was measured photometrically with the Wallac Victor plate reader at 515 nm. The ratio of the OD (optical density) value of a compound-treated culture to the OD value of a mock-treated culture, expressed in percentage, was used to quantify the cytotoxicity of a compound. The concentration at which a compound causes 50% cytotoxicity is referred to as IC50. To quantify the potentiation of the cytotoxicity of topotecan or temozolomide by test compounds, a dimensionless parameter PF50 is used and is defined as the ratio of the IC50 Of topotecan or temozolomide alone to the IC50 of topotecan or temozolomide in combination with a test compound. For the compounds of the invention, PF50 values were determined by testing with topotecan.

For orientation: Ki means the equilibrium dissociation constant of an inhibitor or competing ligand from its target.

Chain of purified PARP protein (P09874 whole entry): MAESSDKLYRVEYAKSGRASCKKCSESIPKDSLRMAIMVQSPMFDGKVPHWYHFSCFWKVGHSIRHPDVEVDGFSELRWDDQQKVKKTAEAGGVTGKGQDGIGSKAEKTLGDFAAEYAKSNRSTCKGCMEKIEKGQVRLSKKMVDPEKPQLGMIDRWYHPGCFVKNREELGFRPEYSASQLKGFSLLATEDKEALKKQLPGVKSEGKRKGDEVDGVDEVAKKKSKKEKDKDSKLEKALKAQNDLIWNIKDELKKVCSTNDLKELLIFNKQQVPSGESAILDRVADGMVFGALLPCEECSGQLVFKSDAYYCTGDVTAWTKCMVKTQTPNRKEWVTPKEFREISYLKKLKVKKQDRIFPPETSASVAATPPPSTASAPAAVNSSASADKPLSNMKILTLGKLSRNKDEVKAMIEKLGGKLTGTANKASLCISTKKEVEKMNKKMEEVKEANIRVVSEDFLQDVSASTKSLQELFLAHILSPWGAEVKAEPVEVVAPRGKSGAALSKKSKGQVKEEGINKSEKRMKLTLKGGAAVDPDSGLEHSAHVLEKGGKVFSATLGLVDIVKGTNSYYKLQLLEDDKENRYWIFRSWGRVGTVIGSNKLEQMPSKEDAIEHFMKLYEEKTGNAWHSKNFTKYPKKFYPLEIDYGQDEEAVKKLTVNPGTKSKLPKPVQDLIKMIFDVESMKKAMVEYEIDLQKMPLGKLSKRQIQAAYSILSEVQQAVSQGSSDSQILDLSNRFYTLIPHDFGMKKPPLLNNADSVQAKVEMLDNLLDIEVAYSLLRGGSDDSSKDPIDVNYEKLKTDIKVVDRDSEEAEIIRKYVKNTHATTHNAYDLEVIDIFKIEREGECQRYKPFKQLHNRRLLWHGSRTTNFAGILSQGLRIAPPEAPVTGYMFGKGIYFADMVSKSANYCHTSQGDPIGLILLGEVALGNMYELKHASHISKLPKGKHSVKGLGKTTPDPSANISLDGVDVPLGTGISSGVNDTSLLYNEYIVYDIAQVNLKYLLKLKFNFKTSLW

For `NC(=O)c1cccc2[nH]c(CS(=O)(=O)c3ccc(NC(=O)OCc4ccccc4)cc3)nc12` [Compound 38, [4(4-Carbamoyl-1H-benzoimidazol-2-ylmethanesulfonyl)-phenyl]-carbamic Acid Benzyl Ester], the Ki in data set [1] came out at 16 ± 1 nM. Also, the “Cytotoxicity Potentiation PF50” value in data set [2] came out at 1.1. The like results for `CC(=O)Nc1ccc(S(=O)(=O)Cc2nc3c(C(N)=O)cccc3n2C)cc1` [Compound 48, 2-(4-Acetylamino-benzenesulfonylmethyl)-1-methyl-1H-benzoimidazole-4-carboxylic Acid Amide] were, in that order, 10 ± 3 nM and 1.2. The like results for `NC(=O)c1cccc2[nH]c(CS(=O)(=O)c3ccc([N+](=O)[O-])cc3)nc12` [Compound 27, 2-(4-Nitro-benzenesulfonylmethyl)-1H-benzimidazole-4-carboxylic Acid Amide] were, in that order, 2.5 ± 0.2 nM and 1.3. Turning to `CCCCNCCSCc1nc2c(C(N)=O)cccc2[nH]1` [Compound 1, 2-(2-Butylamino-ethylsulfanylmethyl)-1H-benzimidazole-4-carboxylic Acid Amide], the inhibitory constant (Ki) in data set [1] was found to be 29 ± 7 nM. Further, the “Cytotoxicity Potentiation PF50” value in data set [2] turned out to be 1.2.

For `NC(=O)c1cccc2[nH]c(CS(=O)(=O)c3ccc(NC(=O)CO)cc3)nc12` [Compound 49], the Ki in data set [1] was determined as 7.4 nM. Also, the “Cytotoxicity Potentiation PF50” value in data set [2] was determined as 1.0. The corresponding values for `CC(=O)Nc1ccc(S(=O)(=O)Cc2nc3c(C(N)=O)cccc3[nH]2)cc1` [Compound 32, 2-(4-Acetylamino-benzenesulfonylmethyl)-1H-benzimidazole-4-carboxylic Acid Amide] are 3.8 ± 0.5 nM and 1.1. For `NC(=O)c1cccc2[nH]c(CN3CCc4ccccc4C3)nc12` [Compound 19, 2-(3,4-Dihydro-1H-isoqluinolin-2-ylmethyl)-1H-benzimidazole-4-carboxylic Acid Amide], the Ki in data set [1] was 22 ± 2 nM. The “Cytotoxicity Potentiation PF50” value in data set [2] was 1.1. The like results for `CC(=O)Nc1ccc(SCc2nc3c(C(N)=O)cccc3[nH]2)cc1` [Compound 9, 2-(4-Acetylamino-phenylsulfanylmethyl)-1H-benzimidazole-4-carboxylic Acid Amide] were, in that order, 10 ± 3 nM and 1.1. The like results for `NC(=O)c1cccc2[nH]c(CS(=O)(=O)c3ccc(O)cc3)nc12` [Compound 29, 2-(4-Hydroxy-benzenesulfonylmethyl)-1H-benzimidazole-4-carboxylic Acid Amide] were, in that order, 24 nM and 1.2. The like results for `CC(=O)Nc1ccc(CSc2nc3c(C(N)=O)cccc3[nH]2)cc1` [Compound 42, 2-(4-Acetylamino-benzylsulfanyl)-1H-benzimidazole-4-carboxylic Acid Amide] were, in that order, 11 ± 3 nM and 1.1. With `CCCCNCCS(=O)(=O)Cc1nc2c(C(N)=O)cccc2[nH]1` [Compound 30, 2-(2-Butylamino-ethanesulfonylmethyl)-1H-benzimidazole-4-carboxylic Acid Amide], the Ki in data set [1] came to 26 nM. In data set [2], the “Cytotoxicity Potentiation PF50” value came out at 1.1. The corresponding values for `COc1ccc(S(=O)(=O)Cc2nc3c(C(N)=O)cccc3[nH]2)cc1` [Compound 33, 2-(4-Methoxy-benzenesulfonylmethyl)-1H-benzimidazole-4-carboxylic Acid Amide] are 10.3 ± 0.3 nM and 1.3.

For the molecule `NC(=O)c1cccc2[nH]c(CS(=O)(=O)c3ccc(C(F)(F)F)cc3)nc12` [Compound 34, 2-(4-Trifluoromethyl-benzenesulfonylmethyl)-1H-benzimidazole-4-carboxylic Acid Amide], the Ki in data set [1] came to 12 ± 1 nM. Further, the “Cytotoxicity Potentiation PF50” value in data set [2] worked out at 1.2. The corresponding values for `CN(CCc1ccccc1)Cc1nc2c(C(N)=O)cccc2[nH]1` [Compound 18, 2-[(Methyl-phenethyl-amino)-methyl]-1H-benzimidazole-4-carboxylic Acid Amide] are 8.6 ± 0.1 nM and 1.4.

`NC(=O)c1cccc2[nH]c(CSc3ccccc3C3=NCCCN3)nc12` [Compound 7]: the Ki in data set [1] was 6.9 ± 0.4 nM. Besides, the “Cytotoxicity Potentiation PF50” value in data set [2] worked out at 2.2. The like results for `CC(=O)c1ccc(N2CCN(Cc3nc4c(C(N)=O)cccc4[nH]3)CC2)cc1` [Compound 17, 2-[4-(4-Acetyl-phenyl)-piperazin-1-vimethyl]-1H-benzimidazole-4-carboxylic Acid Amide] were, in that order, 19 ± 2 nM and 1.2. The like results for `NC(=O)c1cccc2[nH]c(C[S+]([O-])c3ccc([N+](=O)[O-])cc3)nc12` (stereo not drawn) [Compound 28, 2-(4-Nitro-benzenesulfinylmethyl)-1H-benzimidazole-4-carboxylic Acid Amide] were, in that order, 3.9 ± 0.6 nM and 1.4. On to `CCC(=O)Nc1ccc(S(=O)(=O)Cc2nc3c(C(N)=O)cccc3[nH]2)cc1` [Compound 36, 2-(4-Propionylamino-benzenesulfonylmethyl)-1H-benzimidazole-4-carboxylic Acid Amide], for which the Ki in data set [1] came out at 17.8 ± 0.8 nM.

Consider `NC(=O)c1cccc2[nH]c(CSc3nnc(-c4ccccc4)o3)nc12` [Compound 6, 2-(5-Phenyl-[1,3,4]oxadiazol-2-ylsulfanylmethyl)-1H-benzimidazole-4-carboxylic Acid Amide], for which the Ki in data set [1] worked out at 102 nM.
